Calls of active or inactive are those of the source. The rule behind the calls is not given here. Some results are limits rather than exact numbers.

A short description of assay [1]: In virto uterotonic activity in Sprague-Dawley rat uterus assessed as contraction. It is filed as functional.
Assay [2] is described as follows: In virto uterotonic activity in Sprague-Dawley rat uterus expressed as g-force unit. It is filed as functional.
The species entered for assay [3] is Rattus norvegicus. As to the kind of experiment: In virto uterotonic activity in Sprague-Dawley rat uterus assessed as contraction at 20 ug/ml. It is filed as functional, tissue-based.
Assay [4] has as its system Rattus norvegicus. Briefly: In vivo uterotonic activity in iv dosed estrous Sprague-Dawley rat uterus assessed as contraction by sponge tipped catheter method. It is filed as functional.
The species named for assay [5] is Rattus norvegicus. Briefly: In virto uterotonic activity in Sprague-Dawley rat uterus assessed as contraction in presence of atropine. It is filed as functional, tissue-based.
The species entered for assay [6] is Rattus norvegicus. As to the kind of experiment: In virto uterotonic activity in Sprague-Dawley rat uterus assessed as contraction in presence of methysergide. The assay is classed as functional, tissue-based.
Assay [7] has as its system Rattus norvegicus. Briefly: In vivo uterotonic activity in estrous Sprague-Dawley rat uterus assessed as maximum peak contraction at 2400 ug/kg, iv within 20 mins by sponge tipped catheter method. The assay is classed as functional.

In the case of `Cl.O=c1c2ccccc2nc2n1CCc1c-2[nH]c2ccccc12` [RUTAECARPINE HYDROCHLORIDE], the Activity in assay [1] is below 1 µg/mL; in assay [2] it was 0.72 g.
Regarding `CN1c2ccccc2C(=O)N2CCc3c([nH]c4ccccc34)[C@@H]21`, the outcome in the assay listed under Rattus norvegicus [3] was inactive.
Consider `C[n+]1c2n(c(=O)c3ccccc31)CCc1c-2[nH]c2ccccc12.[Cl-]` [DEHYDROEVODIAMINE CHLORIDE], for which the Activity is 0.6 µg/mL in assay [1]; “Dose-dependent effect” in the assay with Rattus norvegicus [4]; 80 µg/kg in the assay with Rattus norvegicus [4] (record 2); 2.15 g in assay [2]; 25.3 mmHg in the assay with Rattus norvegicus [7]. In addition, the result in the assay filed under Rattus norvegicus [5] and in the assay listed under Rattus norvegicus [6] was Active.
